Measurements taken from PMC6158786 (ACS chemical biology, 2018).
Changes are numbered by the printed parent chain.

Legend:
Assay type in all cases: biochemical
human BCO1 [1] = target: T1, human BCO1 (Homo sapiens, UniProt Q9HAY6); assay: inhibition of BC cleavage by E. coli crude extract, HPLC; conditions: 20 μM BC, 10 μM fenretinide, DMN micelles
T1 sequence (Q9HAY6 1-547): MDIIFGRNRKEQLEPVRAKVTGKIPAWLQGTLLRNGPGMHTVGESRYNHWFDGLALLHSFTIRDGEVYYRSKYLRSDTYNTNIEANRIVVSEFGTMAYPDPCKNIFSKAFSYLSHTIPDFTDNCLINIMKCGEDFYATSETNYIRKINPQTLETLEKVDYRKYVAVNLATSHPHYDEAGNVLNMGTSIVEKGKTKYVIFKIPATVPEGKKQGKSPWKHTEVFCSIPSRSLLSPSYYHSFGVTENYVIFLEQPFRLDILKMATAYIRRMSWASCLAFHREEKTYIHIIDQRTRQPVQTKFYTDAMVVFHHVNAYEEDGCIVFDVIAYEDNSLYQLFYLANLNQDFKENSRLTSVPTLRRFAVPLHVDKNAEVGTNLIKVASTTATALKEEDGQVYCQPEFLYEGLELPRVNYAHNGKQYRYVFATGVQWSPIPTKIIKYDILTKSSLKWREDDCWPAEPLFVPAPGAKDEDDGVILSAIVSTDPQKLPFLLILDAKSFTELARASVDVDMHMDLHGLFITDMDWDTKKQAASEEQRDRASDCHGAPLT

human BCO1 [2] = target: T2, human BCO1 (Homo sapiens, UniProt Q9HAY6, W270F); assay: HPLC product formation with E. coli protein extract; conditions: DMN micelles, 30 °C; product all-trans-3-hydroxy-retinal
T2 sequence (Q9HAY6 1-547 W270F): T1 sequence (Q9HAY6 1-547) with W270F

human BCO1 [3] = target: T3, human BCO1 (Homo sapiens, UniProt Q9HAY6, L168G/W270F); assay: as above; conditions: DMN micelles, 30 °C; product all-trans-3-hydroxy-retinal
T3 sequence (Q9HAY6 1-547 L168G/W270F): T1 sequence (Q9HAY6 1-547) with L168G, W270F

human BCO1 [4] = target: T1, human BCO1; assay: HPLC product formation; conditions: DMN micelles, pH 7, 30 °C, 12 min

CC1=C(/C=C/C(C)=C/C=C/C(C)=C/C(=O)Nc2ccc(O)cc2)C(C)(C)CCC1 [fenretinide]
inhibition at 10 μM (human BCO1 [1]): fenretinide, a known BCO1 inhibitor, efficiently inhibited the enzymatic activity of BCO1

CC1=C(/C=C/C(C)=C/C=C/C(C)=C/C=C/C=C(C)/C=C/C=C(C)/C=C/C2=C(C)C[C@@H](O)CC2(C)C)C(C)(C)C[C@H](O)C1 [ZEA, zeaxanthin]
HPLC product formation with E. coli protein extract (human BCO1 [2]): mutant BCO1 variants readily converted zeaxanthin to all-trans-3-hydroxy-retinal in repeated assays
HPLC product formation with E. coli protein extract (human BCO1 [3]): mutant BCO1 variants readily converted zeaxanthin to all-trans-3-hydroxy-retinal in repeated assays

CC1=C(/C=C/C(C)=C/C=C/C(C)=C/C=C/C=C(C)/C=C/C=C(C)/C=C/C2=C(C)C[C@@H](O)CC2(C)C)C(C)(C)CCC1 [CX, 3R-β,β-Caroten-3-ol]
HPLC product formation (human BCO1 [4]; products all-trans-retinal and 3-hydroxy-retinal): all-trans-retinal and all-trans-3-hydroxy-retinal resulting from CX cleavage displayed distinct retention times

CC1=C(/C=C/C(C)=C/C=C/C(C)=C/C=C/C=C(C)/C=C/C=C(C)/C=C/C2=C(C)CCCC2(C)C)C(C)(C)CCC1 [BC, β,β-carotene]
HPLC product formation (human BCO1 [4]; product all-trans-retinal): BCO1 catalyzed the production of all-trans-retinal from BC
